{"source": "ChEMBL document CHEMBL1201862", "about": "“PubChem BioAssay data set” (2004)", "key": {"[1]": {"target": "Cyclin-dependent kinase 9 (Homo sapiens, UniProt P50750)", "format": "functional"}, "[2]": {"target": "Proto-oncogene tyrosine-protein kinase receptor Ret (Homo sapiens, UniProt P07949)", "format": "functional"}, "[3]": {"target": "Platelet-derived growth factor receptor beta (Homo sapiens, UniProt P09619)", "format": "functional"}, "[4]": {"target": "Tyrosine-protein kinase receptor TYRO3 (Homo sapiens, UniProt Q06418)", "format": "functional"}, "[5]": {"target": "Dual specificity tyrosine-phosphorylation-regulated kinase 1B (Homo sapiens, UniProt Q9Y463)", "assay": "Navigating the Kinome. Panel member name: DYRK1B", "format": "functional"}, "[6]": {"target": "Leukocyte tyrosine kinase receptor (Homo sapiens, UniProt P29376)", "assay": "Navigating the Kinome. Panel member name: LTK", "format": "functional"}, "[7]": {"target": "Leucine-rich repeat serine/threonine-protein kinase 2 (Homo sapiens, UniProt Q5S007)", "format": "functional"}, "[8]": {"target": "Protein kinase C theta type (Homo sapiens, UniProt Q04759)", "assay": "Navigating the Kinome. Panel member name: PRKCQ", "format": "functional"}, "Focal adhesion kinase 1": {"target": "Focal adhesion kinase 1 (Homo sapiens, UniProt Q05397)", "format": "functional"}, "Activated CDC42 kinase 1": {"target": "Activated CDC42 kinase 1 (Homo sapiens, UniProt Q07912)", "sequence (Q07912 whole entry)": "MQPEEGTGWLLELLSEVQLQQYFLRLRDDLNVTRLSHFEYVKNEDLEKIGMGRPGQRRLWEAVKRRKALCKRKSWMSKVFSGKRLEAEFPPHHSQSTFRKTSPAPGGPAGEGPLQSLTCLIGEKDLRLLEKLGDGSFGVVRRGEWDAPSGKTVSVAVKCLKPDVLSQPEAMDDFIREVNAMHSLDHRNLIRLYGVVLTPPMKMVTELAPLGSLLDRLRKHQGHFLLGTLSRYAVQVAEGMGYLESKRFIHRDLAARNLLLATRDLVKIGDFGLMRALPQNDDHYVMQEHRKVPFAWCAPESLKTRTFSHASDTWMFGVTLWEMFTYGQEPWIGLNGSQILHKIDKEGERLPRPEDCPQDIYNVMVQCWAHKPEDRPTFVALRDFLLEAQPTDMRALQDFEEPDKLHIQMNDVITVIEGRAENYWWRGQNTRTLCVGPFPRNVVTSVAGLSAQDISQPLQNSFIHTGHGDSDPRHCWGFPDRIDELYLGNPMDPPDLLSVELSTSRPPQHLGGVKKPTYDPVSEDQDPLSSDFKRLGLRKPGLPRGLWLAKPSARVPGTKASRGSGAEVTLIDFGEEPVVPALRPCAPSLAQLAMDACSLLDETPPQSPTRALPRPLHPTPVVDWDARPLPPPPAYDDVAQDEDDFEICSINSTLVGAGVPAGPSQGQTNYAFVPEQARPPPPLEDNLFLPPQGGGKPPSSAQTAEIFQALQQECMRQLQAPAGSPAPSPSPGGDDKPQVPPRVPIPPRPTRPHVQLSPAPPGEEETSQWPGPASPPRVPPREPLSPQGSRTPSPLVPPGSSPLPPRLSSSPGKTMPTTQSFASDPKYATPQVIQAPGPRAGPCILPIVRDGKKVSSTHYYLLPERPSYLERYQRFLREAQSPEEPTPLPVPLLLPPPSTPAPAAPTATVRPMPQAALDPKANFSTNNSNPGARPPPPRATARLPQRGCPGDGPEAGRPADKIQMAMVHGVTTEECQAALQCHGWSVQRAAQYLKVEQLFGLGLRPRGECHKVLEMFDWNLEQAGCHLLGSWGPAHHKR", "assay": "Navigating the Kinome. Panel member name: ACK1", "format": "functional"}, "[9]": {"target": "T1, Replicative DNA helicase DnaB (Mycobacterium tuberculosis, UniProt P9WMR3)", "T1 sequence (P9WMR3 whole entry)": "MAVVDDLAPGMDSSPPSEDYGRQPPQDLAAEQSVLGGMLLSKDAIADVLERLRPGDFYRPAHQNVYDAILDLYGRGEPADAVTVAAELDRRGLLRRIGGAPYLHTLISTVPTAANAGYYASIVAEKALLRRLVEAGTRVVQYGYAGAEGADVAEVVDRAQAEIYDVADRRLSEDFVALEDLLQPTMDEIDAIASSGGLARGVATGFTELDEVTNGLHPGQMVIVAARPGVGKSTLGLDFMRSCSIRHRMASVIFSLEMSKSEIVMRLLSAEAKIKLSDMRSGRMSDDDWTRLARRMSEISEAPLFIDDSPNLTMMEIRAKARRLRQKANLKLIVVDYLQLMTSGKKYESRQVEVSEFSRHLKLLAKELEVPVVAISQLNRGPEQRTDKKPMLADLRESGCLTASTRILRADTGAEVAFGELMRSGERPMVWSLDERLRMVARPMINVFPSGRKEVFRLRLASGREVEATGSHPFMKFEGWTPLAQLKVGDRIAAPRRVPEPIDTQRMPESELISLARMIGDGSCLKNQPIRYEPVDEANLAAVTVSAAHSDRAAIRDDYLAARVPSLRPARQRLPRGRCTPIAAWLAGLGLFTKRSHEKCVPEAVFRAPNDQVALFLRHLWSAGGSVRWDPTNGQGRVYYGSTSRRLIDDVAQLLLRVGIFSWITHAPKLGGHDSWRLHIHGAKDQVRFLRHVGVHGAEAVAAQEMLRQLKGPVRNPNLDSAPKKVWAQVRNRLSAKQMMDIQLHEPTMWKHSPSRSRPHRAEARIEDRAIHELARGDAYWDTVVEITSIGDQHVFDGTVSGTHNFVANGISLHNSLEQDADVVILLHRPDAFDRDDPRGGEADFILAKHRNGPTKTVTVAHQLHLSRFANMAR", "assay": "DnaB intein splicing inhibitors, dose response, biochemical, cell-free fluorescence (AID 449749)", "format": "functional"}, "[10]": {"assay": "NIH-3T3 fibroblast cytotoxicity, dose response, cytotoxicity control, cell-based, fluorescence, Alamar Blue, secondary assay (AID 2327);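 also: NIH-3T3 mouse fibroblasts cultured with fluconazole at 8 µg/mL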", "format": "functional"}, "[11]": {"target": "Mitochondrial peptide methionine sulfoxide reductase (Bos taurus, UniProt P54149)", "sequence (P54149 whole entry)": "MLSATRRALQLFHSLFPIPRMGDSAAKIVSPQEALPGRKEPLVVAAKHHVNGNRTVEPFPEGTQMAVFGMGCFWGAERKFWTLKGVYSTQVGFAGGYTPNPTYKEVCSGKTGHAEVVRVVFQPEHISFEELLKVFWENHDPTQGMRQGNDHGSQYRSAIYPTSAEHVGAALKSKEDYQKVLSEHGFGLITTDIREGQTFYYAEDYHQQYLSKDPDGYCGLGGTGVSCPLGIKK", "assay": "Absorbance-based biochemical high throughput dose response assay for activators of Methionine sulfoxide reductase A (MsrA).", "format": "functional"}, "[12]": {"target": "Protein kinase C delta type (Homo sapiens, UniProt Q05655)", "format": "functional"}, "[13]": {"target": "Serine/threonine-protein kinase PLK4 (Homo sapiens, UniProt O00444)", "format": "functional"}, "[14]": {"target": "RAC-gamma serine/threonine-protein kinase (Homo sapiens, UniProt Q9Y243)", "format": "functional"}, "[15]": {"target": "Serine/threonine-protein kinase D2 (Homo sapiens, UniProt Q9BZL6)", "format": "functional"}, "Ephrin type-A receptor 2": {"target": "Ephrin type-A receptor 2 (Homo sapiens, UniProt P29317)", "sequence (P29317 whole entry)": "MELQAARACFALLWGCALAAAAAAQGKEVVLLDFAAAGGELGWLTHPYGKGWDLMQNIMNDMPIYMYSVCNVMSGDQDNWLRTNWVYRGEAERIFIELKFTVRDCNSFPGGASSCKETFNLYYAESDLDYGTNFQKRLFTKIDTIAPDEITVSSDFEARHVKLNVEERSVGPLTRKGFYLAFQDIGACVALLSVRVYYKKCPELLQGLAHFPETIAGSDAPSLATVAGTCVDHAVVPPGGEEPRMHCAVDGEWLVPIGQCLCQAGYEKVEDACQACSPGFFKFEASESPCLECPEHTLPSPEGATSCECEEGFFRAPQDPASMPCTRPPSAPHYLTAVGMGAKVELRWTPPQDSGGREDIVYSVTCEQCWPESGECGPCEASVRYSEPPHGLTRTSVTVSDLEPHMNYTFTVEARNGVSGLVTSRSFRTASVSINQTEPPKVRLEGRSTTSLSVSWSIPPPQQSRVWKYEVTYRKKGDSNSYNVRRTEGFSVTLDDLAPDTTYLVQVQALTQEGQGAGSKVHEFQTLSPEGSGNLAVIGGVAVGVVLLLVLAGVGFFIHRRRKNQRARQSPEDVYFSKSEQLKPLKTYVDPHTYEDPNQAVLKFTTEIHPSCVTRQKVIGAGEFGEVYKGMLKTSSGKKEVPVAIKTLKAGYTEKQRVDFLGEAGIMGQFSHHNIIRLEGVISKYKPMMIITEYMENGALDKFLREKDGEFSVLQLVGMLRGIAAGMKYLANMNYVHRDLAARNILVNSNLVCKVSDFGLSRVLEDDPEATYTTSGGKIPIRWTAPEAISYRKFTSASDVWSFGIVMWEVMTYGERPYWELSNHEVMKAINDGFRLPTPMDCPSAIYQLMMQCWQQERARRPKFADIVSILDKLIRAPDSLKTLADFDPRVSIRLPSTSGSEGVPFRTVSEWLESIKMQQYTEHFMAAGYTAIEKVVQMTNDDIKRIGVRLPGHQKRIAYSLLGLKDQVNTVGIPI", "format": "functional"}, "[16]": {"target": "Serine/threonine-protein kinase Chk2 (Homo sapiens, UniProt O96017)", "sequence (O96017 whole entry)": "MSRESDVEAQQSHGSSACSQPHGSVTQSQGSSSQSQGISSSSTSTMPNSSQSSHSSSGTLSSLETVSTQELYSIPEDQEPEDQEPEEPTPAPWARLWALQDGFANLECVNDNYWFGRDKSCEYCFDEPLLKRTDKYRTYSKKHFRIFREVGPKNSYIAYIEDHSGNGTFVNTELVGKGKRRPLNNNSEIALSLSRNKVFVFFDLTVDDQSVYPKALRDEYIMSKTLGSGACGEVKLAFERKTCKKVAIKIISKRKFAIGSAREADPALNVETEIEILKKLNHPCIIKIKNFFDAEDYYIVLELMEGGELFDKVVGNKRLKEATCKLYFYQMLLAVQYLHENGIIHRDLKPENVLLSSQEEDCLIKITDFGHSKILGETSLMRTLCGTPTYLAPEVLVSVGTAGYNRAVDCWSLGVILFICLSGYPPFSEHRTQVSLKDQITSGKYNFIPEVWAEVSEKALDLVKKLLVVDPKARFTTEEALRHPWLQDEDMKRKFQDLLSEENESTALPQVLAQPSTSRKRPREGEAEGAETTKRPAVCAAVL", "format": "functional"}, "[17]": {"target": "Ribosomal protein S6 kinase beta-1 (Homo sapiens, UniProt P23443)", "sequence (P23443 whole entry)": "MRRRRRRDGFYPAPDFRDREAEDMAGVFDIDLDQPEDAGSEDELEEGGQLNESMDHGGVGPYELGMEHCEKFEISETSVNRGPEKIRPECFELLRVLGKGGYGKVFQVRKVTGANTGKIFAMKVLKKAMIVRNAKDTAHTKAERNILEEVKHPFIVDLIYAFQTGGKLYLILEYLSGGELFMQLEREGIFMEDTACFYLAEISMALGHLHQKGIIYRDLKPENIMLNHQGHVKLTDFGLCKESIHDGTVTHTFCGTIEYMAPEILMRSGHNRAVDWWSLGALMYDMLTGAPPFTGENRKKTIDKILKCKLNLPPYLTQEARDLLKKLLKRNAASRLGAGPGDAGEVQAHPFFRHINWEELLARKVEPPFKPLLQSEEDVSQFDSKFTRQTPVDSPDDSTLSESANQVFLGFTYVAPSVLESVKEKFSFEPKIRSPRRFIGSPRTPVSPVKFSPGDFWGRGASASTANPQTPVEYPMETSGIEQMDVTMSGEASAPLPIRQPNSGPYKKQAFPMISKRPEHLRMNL", "format": "functional"}, "[18]": {"target": "Mitogen-activated protein kinase 1 (Homo sapiens, UniProt P28482)", "format": "functional"}, "[19]": {"target": "Protein kinase C gamma type (Homo sapiens, UniProt P05129)", "format": "functional"}, "[20]": {"target": "Tyrosine-protein kinase ITK/TSK (Homo sapiens, UniProt Q08881)", "sequence (Q08881 whole entry)": "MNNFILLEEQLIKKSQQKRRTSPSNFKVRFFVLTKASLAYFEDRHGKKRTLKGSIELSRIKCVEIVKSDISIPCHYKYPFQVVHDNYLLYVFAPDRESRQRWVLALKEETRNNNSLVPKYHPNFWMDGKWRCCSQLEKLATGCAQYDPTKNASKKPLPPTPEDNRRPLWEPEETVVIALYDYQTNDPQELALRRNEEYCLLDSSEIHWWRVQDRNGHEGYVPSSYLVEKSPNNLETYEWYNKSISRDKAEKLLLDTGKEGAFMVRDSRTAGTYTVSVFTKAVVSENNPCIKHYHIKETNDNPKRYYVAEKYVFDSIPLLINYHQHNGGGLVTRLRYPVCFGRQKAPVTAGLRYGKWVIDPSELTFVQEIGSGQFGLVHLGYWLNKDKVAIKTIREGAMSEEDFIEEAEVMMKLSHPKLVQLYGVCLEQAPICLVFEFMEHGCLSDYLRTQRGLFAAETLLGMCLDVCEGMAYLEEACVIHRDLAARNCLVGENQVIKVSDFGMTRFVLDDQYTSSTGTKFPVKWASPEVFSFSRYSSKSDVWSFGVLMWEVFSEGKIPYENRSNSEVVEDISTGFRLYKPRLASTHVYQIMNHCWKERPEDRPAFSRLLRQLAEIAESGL", "format": "functional"}, "[21]": {"target": "MAP kinase-activated protein kinase 3 (Homo sapiens, UniProt Q16644)", "format": "functional"}, "[22]": {"target": "Protein kinase C zeta type (Homo sapiens, UniProt Q05513)", "format": "functional"}, "[23]": {"target": "Serine/threonine-protein kinase 3 (Homo sapiens, UniProt Q13188)", "format": "functional"}, "[24]": {"target": "Casein kinase II subunit alpha (Homo sapiens, UniProt P68400)", "format": "functional"}, "[25]": {"target": "1-phosphatidylinositol 4,5-bisphosphate phosphodiesterase beta-3 (Homo sapiens, UniProt Q01970)", "assay": "Fluorescence-based biochemical high throughput dose response assay to identify inhibitors of phospholipase C isozymes (PLC-B3)."}, "Cysteine protease ATG4B": {"target": "Cysteine protease ATG4B (Homo sapiens, UniProt Q9Y4P1)", "sequence (Q9Y4P1 whole entry)": "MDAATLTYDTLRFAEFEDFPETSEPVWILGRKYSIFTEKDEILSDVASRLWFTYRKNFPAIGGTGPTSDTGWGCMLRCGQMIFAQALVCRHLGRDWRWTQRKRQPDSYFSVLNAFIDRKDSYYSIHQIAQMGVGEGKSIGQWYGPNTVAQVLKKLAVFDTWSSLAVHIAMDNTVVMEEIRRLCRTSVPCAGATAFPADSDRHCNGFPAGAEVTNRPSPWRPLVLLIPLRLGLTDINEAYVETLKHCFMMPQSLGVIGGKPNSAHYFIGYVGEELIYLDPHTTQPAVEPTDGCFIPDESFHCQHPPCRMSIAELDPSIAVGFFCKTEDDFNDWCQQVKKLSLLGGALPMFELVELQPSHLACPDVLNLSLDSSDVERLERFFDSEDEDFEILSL", "format": "functional"}, "[26]": {"target": "T2, RNA-binding protein pos-1 (Caenorhabditis elegans, UniProt G5EF15)", "T2 sequence (G5EF15 whole entry)": "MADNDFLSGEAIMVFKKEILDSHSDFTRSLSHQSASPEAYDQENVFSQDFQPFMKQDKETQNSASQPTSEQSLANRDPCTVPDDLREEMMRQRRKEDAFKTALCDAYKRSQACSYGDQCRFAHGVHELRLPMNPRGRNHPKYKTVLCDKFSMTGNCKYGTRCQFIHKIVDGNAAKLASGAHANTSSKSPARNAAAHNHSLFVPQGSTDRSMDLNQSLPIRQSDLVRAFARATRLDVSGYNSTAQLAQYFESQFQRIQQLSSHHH", "assay": "inhibitors of POS-1/mex-3 RNA binding, dose response, biochemical, fluorescence polarization (AID 1964);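 also: purified POS-1 fused to maltose binding protein made in E. coli; potency of compounds blocking POS-1 binding to fluorescent RNA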"}}, "note": "The source made the active and inactive calls.", "data": [{"smiles": "Cc1cc(=O)[nH]nc1-c1ccc(NC(=O)Nc2cc(C(F)(F)F)ccc2F)c(Cl)c1", "values": [{"measurement": "Ki", "setting": "[1]", "value": "> 1.58 µM (inactive)"}, {"measurement": "Ki", "setting": "[2]", "value": "0.00316 µM (active)"}, {"measurement": "Ki", "setting": "[3]", "value": "0.158 µM (active)"}, {"measurement": "Ki", "setting": "[4]", "value": "> 3.16 µM (inactive)"}, {"measurement": "Ki", "setting": "[5]", "value": "> 2.51 µM (inactive)"}, {"measurement": "Ki", "setting": "[6]", "value": "> 2.51 µM (inactive)"}, {"measurement": "Ki", "setting": "[7]", "value": "> 2.51 µM (inactive)"}, {"measurement": "Ki", "setting": "[8]", "value": "> 2.51 µM (inactive)"}, {"measurement": "Ki", "setting": "Focal adhesion kinase 1", "value": "> 6.31 µM (inactive)"}, {"measurement": "Ki", "setting": "Activated CDC42 kinase 1", "value": "> 3.98 µM (inactive)"}]}, {"smiles": "O=C1C=C(NCc2ccccc2)c2ccccc2C1=O", "values": [{"measurement": "AC50", "setting": "[9]", "value": "> 380 µM (inconclusive)"}, {"measurement": "EC50", "setting": "[10]", "value": "2.61 µM (inconclusive)"}, {"measurement": "EC50", "setting": "[11]", "value": "63.3 µM (inactive)"}]}, {"smiles": "CCOC(=O)c1cn(-c2ccc(O)cc2C)c2cc(-c3ccncc3)ccc2c1=O", "values": [{"measurement": "Ki", "setting": "[12]", "value": "0.501 µM (active)"}, {"measurement": "Ki", "setting": "[13]", "value": "> 3.98 µM (inactive)"}, {"measurement": "Ki", "setting": "[14]", "value": "> 10 µM (inactive)"}, {"measurement": "Ki", "setting": "[15]", "value": "> 10 µM (inactive)"}, {"measurement": "Ki", "setting": "Ephrin type-A receptor 2", "value": "> 3.16 µM (inactive)"}, {"measurement": "Ki", "setting": "[16]", "value": "> 10 µM (inactive)"}, {"measurement": "Ki", "setting": "[17]", "value": "> 6.31 µM (inactive)"}, {"measurement": "Ki", "setting": "[18]", "value": "> 7.94 µM (inactive)"}, {"measurement": "Ki", "setting": "[19]", "value": "> 7.94 µM (inactive)"}, {"measurement": "Ki", "setting": "[20]", "value": "> 1.58 µM (inactive)"}, {"measurement": "Ki", "setting": "[21]", "value": "> 10 µM (inactive)"}, {"measurement": "Ki", "setting": "[22]", "value": "> 7.94 µM (inactive)"}, {"measurement": "Ki", "setting": "[23]", "value": "> 7.94 µM (inactive)"}, {"measurement": "Ki", "setting": "[24]", "value": "> 6.31 µM (inactive)"}]}, {"smiles": "O=C(O)c1[nH]c2ccccc2c1C(c1cc(Cl)cc([N+](=O)[O-])c1O)c1c(C(=O)O)[nH]c2ccccc12", "values": [{"measurement": "IC50", "setting": "[25]", "value": "> 122 µM (inactive)"}, {"measurement": "IC50", "setting": "Cysteine protease ATG4B", "value": "3.46 µM (active)"}, {"measurement": "EC50", "setting": "[26]", "value": "14.9 µM (active)"}]}]}
